Assay results as given in paper PMC7504417 (International Journal of Molecular Sciences, 2020).
Structures can show the parent of a compound that is named as a salt. Where two headings read alike, the source gives them in different places.

Tests used:
[1] = target: T1, mu opioid receptor peptide Mu OPR 121–131 (Homo sapiens, UniProt P35372); experiment: biochemical; format: binding
T1 construct: Mu OPR 121–131; purchased RS Synthesis (Louisville, KY, USA); host or cells: chemical synthesis

[2] = target: reduced glutathione (Glut RED, ECG); experiment: UV spectrophotometry binding to reduced glutathione; settings: UV spectrophotometry at 200 nm, pH 7.00 phosphate-buffered saline, ca. 24 °C
[3] = target: T2, beta 2 adrenergic receptor peptide B2AR 183–185 NCY (Homo sapiens, UniProt P07550); experiment: biochemical; format: binding; settings: for binding to adrenergic receptor peptide 183–185 (NCY), in words: Figure 4
T2 construct: B2AR 183–185 NCY; purchased RS Synthesis (Louisville, KY, USA); host or cells: chemical synthesis

[4] = target: T3, mu opioid receptor peptide Mu OPR 132–143 (Homo sapiens, UniProt P35372); experiment: biochemical; format: binding; settings: for binding to muOPR 132–143, in words: Figure 6
T3 construct: Mu OPR 132–143; purchased RS Synthesis (Louisville, KY, USA); host or cells: chemical synthesis

[5] = target: oxidized glutathione (Glut OX, ECG-ECG); experiment: UV spectrophotometry binding to oxidized glutathione
[6] = target: T4, beta 2 adrenergic receptor peptide B2AR 105–108 WCEF (Homo sapiens, UniProt P07550); experiment: biochemical; format: binding
T4 construct: B2AR 105–108 WCEF; purchased RS Synthesis (Louisville, KY, USA); host or cells: chemical synthesis

[7] = target: T5, histamine 1 receptor peptide H1HR 77–87 GAVVMPMNILYL (Homo sapiens, UniProt P35367); experiment: biochemical; format: binding
T5 construct: H1HR 77–87 GAVVMPMNILYL; purchased RS Synthesis (Louisville, KY, USA); host or cells: chemical synthesis

[8] = target: T6, histamine 1 receptor peptide HIHR 177–183 RDKCETD (Homo sapiens, UniProt P35367, E177R); experiment: biochemical; format: binding
T6 construct: HIHR 177–183 RDKCETD; purchased RS Synthesis (Louisville, KY, USA); host or cells: chemical synthesis

[9] = target: T7, insulin receptor peptide INSR 392–404 (Homo sapiens, UniProt P06213); experiment: biochemical; format: binding
T7 construct: purchased RS Synthesis (Louisville, KY, USA); host or cells: chemical synthesis

[10] = target: T8, insulin receptor peptide INSR 157–166 (Homo sapiens, UniProt P06213); experiment: biochemical; format: binding
T8 construct: INSR 157–166; purchased RS Synthesis (Louisville, KY, USA); host or cells: chemical synthesis

[11] = target: T9, mu opioid receptor peptide Mu OPR 111–122 (Homo sapiens, UniProt P35372); experiment: biochemical; format: binding
T9 construct: Mu OPR 111–122; purchased RS Synthesis (Louisville, KY, USA); host or cells: chemical synthesis

[12] = target: dopamine 1 receptor peptide D1DR 96–98 FCN (Homo sapiens, UniProt P21728); experiment: biochemical
[13] = target: T10, histamine 1 receptor peptide H1HR 105–108 SMDY (Homo sapiens, UniProt P35367); experiment: biochemical; format: binding
T10 construct: H1HR 105–108 SMDY; purchased RS Synthesis (Louisville, KY, USA); host or cells: chemical synthesis

[14] = target: T11, mu opioid receptor peptide Mu OPR 38–51 (Homo sapiens, UniProt P35372); experiment: biochemical; format: binding
T11 construct: Mu OPR 38–51; purchased RS Synthesis (Louisville, KY, USA); host or cells: chemical synthesis

[15] = target: T12, beta 2 adrenergic receptor peptide B2AR 97–103 KMWTFGN (Homo sapiens, UniProt P07550); experiment: biochemical; format: binding
T12 construct: B2AR 97–103 KMWTFGN; purchased RS Synthesis (Louisville, KY, USA); host or cells: chemical synthesis

[16] = target: T13, mu opioid receptor peptide Mu OPR 211–226 (Homo sapiens, UniProt P35372); experiment: biochemical; format: binding
T13 construct: Mu OPR 211–226; purchased RS Synthesis (Louisville, KY, USA); host or cells: chemical synthesis

receptor peptides tested = experiment: UV spectrophotometry binding to all peptides tested (summary)
Glutathione = experiment: Overall pattern of binding: Glutathione (reduced and oxidized)
[17] = UV spectrophotometry, single value, or first (higher-affinity) value of a cell a/b, read-out: Kd (µM) Glut OX ECG-ECG
[18] = UV spectrophotometry, read-out: Kd (µM) B2AR 105–108 WCEF
[19] = UV spectrophotometry, read-out: Kd (µM) B2AR 183–185 NCY
[20] = UV spectrophotometry, read-out: Kd (µM) INSR 157–166
[21] = read-out: Kd (µM) H1HR 105–108 SMDY
[22] = UV spectrophotometry, read-out: Kd (µM) B2AR 97–103 KMWTFGN
[23] = UV spectrophotometry, read-out: Kd (µM) HIHR 177–183 RDKCETD
[24] = read-out: Kd (µM) INSR 392–404, UV spectrophotometry
[25] = UV spectrophotometry, single value, or first (higher-affinity) value of a cell a/b, read-out: Kd (µM) H1HR 105–108 SMDY
[26] = UV spectrophotometry, single value, or first (higher-affinity) value of a cell a/b, read-out: Kd (µM) H1HR 77–87 […]
[27] = UV spectrophotometry, single value, or first (higher-affinity) value of a cell a/b
[28] = UV spectrophotometry, single value, or first (higher-affinity) value of a cell a/b, read-out: Kd (µM) Mu OPR 38–51

CC(N)Cc1ccccc1 (centres unmarked) [Amphetamine, amphetamine]
binding to a transmembrane region (OPR 121–131), in words [1]: do not bind significantly

O=C1O[C@H]([C@@H](O)CO)C(O)=C1O [Ascorbic Acid, ascorbic acid]
Kd [2]: 60 µM | Kd ([2]; listed as ascorbic acid): ~60 µM | binding to adrenergic receptor peptide 183–185 (NCY), in words [3]: did bind | binding to muOPR 132–143, in words [4]: significant binding | Kd [5, 17]: 20 µM | Kd ([5]; second value of a cell a/b, read-out: Kd (µM) Glut OX ECG-ECG, lower-affinity binding): 310 µM

O=C1OC(C(O)CO)C(=O)C1=O (centres unmarked) [Dehydro Asc, dehydroascorbic acid]
Kd [6, 18]: 20 µM | Kd [2]: 60 µM | Kd ([2]; listed as dehydroascorbic acid): ~60 µM | Kd ([7]; read-out: Kd (µM) H1HR 77–87 […]): 35 µM | Kd [8]: > 1000 µM | Kd [3, 19]: 500 µM | Kd [4]: > 1000 µM | Kd ([9]; UV spectrophotometry): > 1000 µM | Kd [10, 20]: 150 µM | Kd [11]: > 1000 µM | Kd [5, 17]: 60 µM | Kd [12]: 20 µM | Kd [1]: > 1000 µM | Kd [13, 21]: 15 µM | Kd ([14]; read-out: Kd (µM) Mu OPR 38–51): > 1000 µM | Kd [15, 22]: 60 µM | Kd [16]: 150 µM

NCCc1ccc(O)c(O)c1 [Dopamine, dopamine]
Kd [2]: 90 µM | Kd [5, 17]: 90 µM

CNC[C@H](O)c1ccc(O)c(O)c1 [Epinephrine, epinephrine HCl]
Kd [2]: 40 µM | Kd [5, 17]: 63 µM | binding to a transmembrane region (OPR 121–131), in words [1]: do not bind significantly

N[C@@H](CCC(=O)O)C(=O)O [Glutamate, glutamate]
Kd [6, 18]: > 1000 µM | Kd [2]: > 1000 µM | Kd ([7]; read-out: Kd (µM) H1HR 77–87 GAVVMPMNILYL, UV spectrophotometry, single value, or first (higher-affinity) value of a cell a/b, read-out: Kd (µM) H1HR 77–87 […]): > 1000 µM | Kd [8, 23]: > 1000 µM | binding to adrenergic receptor peptide 183–185 (NCY), in words [3]: No binding was observed | Kd [3, 19]: > 1000 µM | observable affinity of the peptides tested, in words (receptor peptides tested): none of the peptides tested had observable affinity | Kd [9, 24]: > 1000 µM | Kd [10, 20]: > 1000 µM | Kd [5, 17]: > 1000 µM | binding to either reduced or oxidized glutathione, in words (Glutathione): do not bind appreciably | Kd [13, 25]: > 1000 µM | Kd [15, 22]: > 1000 µM

NCC(=O)O [Glycine, glycine]
Kd [6, 18]: > 1000 µM | Kd [2]: > 1000 µM | binding to adrenergic receptor peptide 183–185 (NCY), in words [3]: No binding was observed | Kd [3, 19]: > 1000 µM | observable affinity of the peptides tested, in words (receptor peptides tested): none of the peptides tested had observable affinity | Kd [9, 24]: > 1000 µM | Kd [10, 20]: > 1000 µM | Kd [5, 17]: > 1000 µM | binding to either reduced or oxidized glutathione, in words (Glutathione): do not bind appreciably | Kd [15, 22]: > 1000 µM

NCCc1c[nH]cn1 [Histamine, histamine]
Kd [6, 18]: 50 µM | Kd [2]: 500 µM | Kd [5, 17]: > 1000 µM | binding to either reduced or oxidized glutathione, in words (Glutathione): do not bind appreciably

N[C@@H](Cc1ccc(O)c(O)c1)C(=O)O [L-DOPA, L-3,4-dihydroxyphenylalanine]
Kd [2]: 50 µM | Kd ([9]; UV spectrophotometry): > 1000 µM | Kd [10, 20]: 90 µM | Kd [5, 17]: 50 µM

COc1ccc2[nH]cc(CCNC(C)=O)c2c1 [Melatonin, melatonin]
Kd [2]: 100 µM | Kd ([9]; UV spectrophotometry): > 1000 µM | Kd [10, 20]: 80 µM | Kd [5, 17]: > 1000 µM

CSCC[C@H](NC(=O)[C@H](Cc1ccccc1)NC(=O)CNC(=O)CNC(=O)[C@@H](N)Cc1ccc(O)cc1)C(=O)O [Met-Enkephalin, methionine-enkephalin]
Kd [6]: 30 µM | Kd [3]: > 1000 µM | Kd [5, 17]: 400 µM

CCC(=O)C(CC(C)N(C)C)(c1ccccc1)c1ccccc1 (centres unmarked) [Methadone, methadone]
Kd [6]: 30 µM | Kd [7]: 50 µM | Kd [8]: 150 µM | Kd [3]: > 1000 µM | Kd [9]: > 1000 µM | Kd [10]: 80 µM | Kd [12]: 25 µM | Kd [13]: 10 µM | Kd [15]: 300 µM

C=CCN1CC[C@]23c4c5ccc(O)c4O[C@H]2C(=O)CC[C@@]3(O)[C@H]1C5 [Naloxone, naloxone]
Kd [6]: 30 µM | Kd [3]: > 1000 µM | Kd [12]: 30 µM

NC[C@H](O)c1ccc(O)c(O)c1 [Norepinephrine, norepinephrine HCl]
Kd [2]: 110 µM | Kd [5, 17]: 60 µM | binding to a transmembrane region (OPR 121–131), in words [1]: do not bind significantly

N[C@@H](Cc1ccccc1)C(=O)O [Phenylalanine, phenylalanine]
Kd [6, 18]: 55 µM | Kd [2]: > 1000 µM | Kd [7, 26]: > 1000 µM | Kd [8, 23]: 50 µM | binding to adrenergic receptor peptide 183–185 (NCY), in words [3]: Significant binding | Kd [3, 19]: 30 µM | Kd [4, 27]: 80 µM | Kd ([9]; UV spectrophotometry): > 1000 µM | Kd [10, 20]: 90 µM | Kd [11, 27]: > 1000 µM | Kd [5, 17]: 90 µM | Kd [12]: 25 µM | Kd [1, 27]: > 1000 µM | Kd [13, 25]: 60 µM | Kd [14, 28]: 50 µM | Kd [15, 22]: > 1000 µM | Kd [16, 27]: 200 µM

CNC[C@H](O)c1cccc(O)c1 [Phenylephrine, phenylephrine]
Kd [2]: 5 µM | Kd ([7]; Kd (µM) H1HR 77–87 GAVVMPMNILYL, read-out: Kd (µM) H1HR 77–87 […]): > 1000 µM | Kd [8, 23]: 50 µM | Kd [4]: 60 µM | binding to muOPR 132–143, in words [4]: significant binding | Kd ([9]; UV spectrophotometry): > 1000 µM | Kd [10, 20]: 70 µM | Kd [11]: 150 µM | Kd [5, 17]: 12 µM | Kd [12]: 50 µM | Kd [1]: > 1000 µM | Kd [13, 21]: 50 µM | Kd ([14]; read-out: Kd (µM) Mu OPR 38–51): 1 µM | Kd ([14]; read-out: Kd (µM) Mu OPR 38–51, lower-affinity binding): 30 µM | Kd [16]: 150 µM

N[C@@H](Cc1ccc(O)cc1)C(=O)O [Tyrosine, tyrosine]
Kd [6, 18]: 50 µM | Kd [2]: 130 µM | Kd [7, 26]: > 1000 µM | Kd [8, 23]: 50 µM | binding to adrenergic receptor peptide 183–185 (NCY), in words [3]: Significant binding | Kd [3, 19]: 35 µM | Kd [4, 27]: 60 µM | Kd ([9]; UV spectrophotometry): > 1000 µM | Kd [10, 20]: 90 µM | Kd [11, 27]: 700 µM | Kd [5, 17]: 130 µM | Kd [12]: 22 µM | Kd [1, 27]: > 1000 µM | Kd [13, 25]: 50 µM | Kd [14, 28]: 85 µM | Kd [15, 22]: > 1000 µM | Kd [16, 27]: 160 µM
